The results in this text go back to patent publication US20030134859A1 (SANKYO COMPANY, LIMITED, priority 2000, published 2003).

For test [1], the system named is Mouse preadipocyte strain 3T3-L1. Description: Inhibition of differentiation as an indication of acetic acid uptake. To be noted: control (0.01% dimethylsulfoxide) = 100%; for activity at 0.1 µM: Mus musculus, read-out: Rate of Uptake (%) of [2-14C] acetic acid. Type of test: cell-based. The procedure: As the basal medium, Dulbecco's modified Eagle's (DEM) medium (NISSUI PHARMACEUTICAL CO., LTD) was used. […] All culturing in the present Test Example was carried out in a CO2 incubator at 37° C. and 10% CO2 concentration.
The successively cultured 3T3-L1 cells were inoculated in a Biocoat Collagen I 96-well white/clear plate (Becton Dickinson and Co.) at a concentration of 4,900 cells/well, and were cultured in the basal medium containing added 10% (v/v) inactivated bovine fetal serum (FBS) for 10 days.
The medium was replaced with a differentiation-inducing medium in which inactivated FBS (final concentration: 5%), insulin (Sigma-Aldrich Japan K. K., final concentration: 10 μg/mL), isobutyl methyl xanthine (Aldrich K. K., final concentration: 0.5 mM) and dexamethazone (final concentration: 1 μM) were added so as to be at the final concentrations indicated in the parentheses. The cells were divided in the following 2 groups and were cultured for 4 days; 1) in the presence of 0.01% (v/v) dimethylsulfoxide, and 2) in the presence of 0.01% (v/v) dimethylsulfoxide in which was dissolved 1 mM of the test substance (final concentration of 0.1 μM). Then, the medium was further replaced with a maintenance medium in which inactivated […] and insulin were added to the base medium so as to be at final concentrations of 5% and 100 ng/mL, respectively, and the cells were cultured for 2 days.
The inhibitory activity of the test compound against cell differentiation was assayed by using uptake of [2-^14C] acetic acid into the cultured cells as an indicator. […] Then the cells were further incubated with the newly prepared medium for 1 hr. After washing the well with PBS (−), the cells were dried. To these wells, 100 μL/well of a scintillation cocktail (Hewlett-Packard Co., MICROSCINT-20 PACKARD) were added and their radioactivities were determined with a Packard TopCont microplate Scintillation Counter (Hewlett-Packard Co., PACKARD) and the uptake level of [2-^14C] acetic acid into the cultured cell was calculated.
On the basis of the calculated uptake level of [2-^14C] acetic acid into the cultured cells, the relative uptake level of [2-^14C] acetic acid in the group treated with the test compound was calculated against the uptake level of [2-^14C] acetic acid in the presence of 0.01% (v/v) dimethylsulfoxide solution described in 1) (100%).
Value=Uptake Level (cpm) of [2-^14C] Acetic Acid in the Presence of the Test Substance
Control=Uptake Level (cpm) of [2-^14C] Acetic Acid in the Control Group (0.01% dimethylsulfoxide)
Uptake Rate (%) of [2-^14C] Acetic Acid=100×[Value]/[Control]

The subject of the next test is Rat white adipocytes. Description: Stimulation of differentiation of the adipocytes (Oil Red O). Format: cell-based. The note with it: 100 nM test compound, 5 days, Oil Red O ABS550, control = 100%, blank = 0%, Table 7; for activity at 0.1 µM: Rattus norvegicus, Adipocyte, 120 h, read-out: Rate of Differentiation (%). The procedure: Rat white adipocytes contained in the white adipocyte culture kit, which was purchased from HOKUDO, were used. Mediums for proliferation and for differentiation-inducing, which were contained in the white adipocyte culture kit purchased from HOKUDO, were used.
Immediately after arrival of the purchased cells, all medium for transportation was discarded and replaced with 5 ml of proliferation medium (/25 cm^2-flask) and the cells were cultured for one day. Then, a cell suspension was prepared with proliferation medium so as to be 83,000 cells/mL, and the suspension was plated into a type I 96-well collagen-coated microplate (SUMITOMO BAKELITE CO., ltd.) so as to be 5,000 cells/well (60 μL/well). For the blank, the proliferation medium without the cells was plated into the well (blank well) of each plate.
Further, 1) in the group treated with the test compound, 3 μL/well of a solution in which the test compound (100 μM) was dissolved in DMSO solution and diluted with differentiation-inducing medium by 20 times (final concentration of the test compound: 100 nM, final concentration of DMSO: 0.1% (v/v)) were added to the well where the cells were plated. 2) In the control group, 3 μL/well of DMSO solution that was diluted with differentiation-inducing medium by 20 times (final concentration of DMSO: 0.1% (v/v)) were added to the well where the cells were plated. Further, 3) in the blank group, 3 μL/well of DMSO solution that was diluted with differentiation-inducing medium by 20 times (final concentration: 0.1% (v/v)) were added to the blank well.
After culturing for 5 days, all differentiation-inducing medium was discarded and replaced with 60 μL of 10% (v/v) of formaldehyde solution (for fixation) in each well and the cells were kept stationary for 20 min at room temperature. After this the fixative solution was discarded and replaced with 60 μL of 0.2% (v/v) Triton X (Sigma-Aldrich Japan K. K.) solution in each well and kept stationary for 5 min at the room temperature. Then all Triton X solution was discarded and replaced with 60 μL of 60% (v/v) isopropanol solution containing dissolved Oil Red 0 (Sigma-Aldrich Japan K. K.) so as to be 0.3%, which was adipose tissue staining solution, and the well was left stationary for 10 min at room temperature. After the adipose tissue staining solution was discarded, the well was washed twice with 60 μL of 60% (v/v) isopropanol solution. Then, 100 μL of the DMSO were added to each well and stirred for 5 min at room temperature. The absorbance was measured at 550 nm (ABS550) with a multi-plate reader (LabsSystems), and the stained amount by Oil Red 0 was determined. The measured level at ABS550 in the control group was defined as 100%, while the level at ABS550 in the blank group was defined as 0%. The differentiation rate (%) of the adipocytes treated with the test compound was calculated.

Where two headings read alike, the source gives them in different places.

Turning to `O=C(Nc1ncccc1[N+](=O)[O-])c1cc([N+](=O)[O-])ccc1Cl` [Example 80, N-(3-Nitropyridin-2-yl)-(2-chloro-5-nitrophenyl)carboxamide], the activity at 0.1 µM in test [1] (0.1 μM test substance) was 83.3%; in the test with Rat white adipocytes, 118%.
`O=C(Nc1cccnc1)c1ccc(NC(=O)c2cc([N+](=O)[O-])ccc2Cl)cc1` [Example 148, N-[4-(Pyridin-3-ylaminocarbonyl)phenyl]-(2-chloro-5-nitrophenyl)carboxamide]: the activity at 0.1 µM in test [1] (3T3-L1, 0.1 μM test substance) was 75.3%; with Rat white adipocytes, 119%.
Take `COC(=O)c1nccnc1NC(=O)c1cc([N+](=O)[O-])ccc1Cl` [Example 60, N-(2-Metboxycarbonylpyrazin-3-yl)-(2-chloro-5-nitrophenyl)carboxamide]: the “Rate of Uptake (%) of [2-14C] acetic acid” value in test [1] (0.1 μM test substance) is listed as 68.8%. Also, the “Rate of Differentiation (%)” value in the test with Rat white adipocytes stood at 110.5%.
Consider `O=C(O)c1cccc(NC(=O)c2cc([N+](=O)[O-])ccc2Cl)c1` [Example 145, 3-(2-Chloro-5-nitrobenzoylamino)benzoic Acid], for which the activity at 0.1 µM was 87.6% in test [1] (3T3-L1, 0.1 μM test substance) and 141% with Rat white adipocytes.
Turning to `O=C(Nc1nc2ccc(F)cc2s1)c1cc([N+](=O)[O-])ccc1Cl` [Example 70, N-(6-Fluorobenzothiazol-2-yl)-(2-chloro-5-nitrophenyl)carboxamide], the activity at 0.1 µM was determined as 70.2% in test [1] (3T3-L1, 0.1 μM test substance) and 122% in the test with Rat white adipocytes.
For `O=C(Nc1ccc(N2CCOCC2)cc1)c1cc([N+](=O)[O-])ccc1Cl` [Example 113, N-[4-(Morpholin-4-yl)phenyl]-(2-chloro-5-nitrophenyl)carboxamide], the activity at 0.1 µM came to 84.6% in test [1] (3T3-L1, 0.1 μM test substance) and 111% in the test on Rat white adipocytes.
Regarding “N-(5-Bromo-3-nitropyridin-2-yl)-(−2-chloro-5-nitrophenyl-carboxamide [Example 84]”, in test [1] (0.1 μM test substance), the “Rate of Uptake (%) of [2-14C] acetic acid” value was found to be 59.5%. Moreover, in the test on Rat white adipocytes, the “Rate of Differentiation (%)” value is 151.4%.
Consider `N#Cc1ccccc1NC(=O)c1cc([N+](=O)[O-])ccc1Cl` [Example 22, N-(2-Cyanophenyl)-(2-chloro-5-nitrophenyl)carboxamide], for which the activity at 0.1 µM was determined as 51.5% in test [1] (3T3-L1, 0.1 μM test substance) and 127% in the test on Rat white adipocytes.
On to `Cc1ccnc(NC(=O)c2cc([N+](=O)[O-])ccc2Cl)c1[N+](=O)[O-]` [Example 63, N-(4-Methyl-3-nitropyridin-2-yl)-(2-chloro-5-nitrophenyl)carboxamide], for which the results for the activity at 0.1 µM (in test [1] (0.1 μM test substance); with Rat white adipocytes) were 85.5% and 120%, respectively.
As to `O=C(Nc1ncc(Br)s1)c1cc([N+](=O)[O-])ccc1Cl` [Example 48, N-(5-Bromothiazol-2-yl)-(2-chloro-5-nitrophenyl)carboxamide], the activity at 0.1 µM stood at 70.3% in test [1] (3T3-L1, 0.1 μM test substance) and 131% with Rat white adipocytes.
